Test system: 633275-114-R-J1-PDC complex spheroids, viability
Assay: Anticancer human tumor 633275-114-R-J1-PDC patient-derived endometrial adenocarcinoma cell line growth inhibition [GQUAD]
Conditions: for IC50: curve of first compound; for viability, T/C: stronger effect = lower value; active means viability on the fitted dose curve at most 10% of control; inactive means the rest
In short: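 Multi-cell-type spheroids of tumor cells with HUVEC and mesenchymal stem cells, treated with drug combinations. Concentrations descend in half-log steps from near clinical Cmax, or from 10 microM where Cmax is unknown; viability read-out.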

[1] = second compound 0.0316 µM, first compound 0.0316 µM
[2] = second compound 0.0316 µM, first compound 0.316 µM
[3] = second compound 0.1 µM, first compound 0.0316 µM
[4] = second compound 0.1 µM, first compound 0.316 µM
[5] = second compound 0.316 µM, first compound 0.0316 µM
[6] = second compound 0.316 µM, first compound 0.316 µM
[7] = second compound 1 µM, first compound 0.0316 µM
[8] = second compound 1 µM, first compound 0.316 µM
[9] = second compound 3.16 µM, first compound 0.0316 µM
[10] = second compound 3.16 µM, first compound 0.316 µM
[11] = second compound 10 µM, first compound 0.0316 µM
[12] = second compound 10 µM, first compound 0.316 µM
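Further: spheroids exposed to the agents for seven days.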
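Wherever viability, T/C is given: percent of DMSO vehicle control viability which is 100%.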

CC1COCCN1c1cc(C2(S(C)(=N)=O)CC2)nc(-c2ccnc3[nH]ccc23)n1 (centres undefined) + Cc1cnc(CNC(=O)c2c(=O)c3ccc(N4CCCN(C)CC4)nc3n3c2sc2ccccc23)cn1
inactive: viability, T/C [1] 67.5% | viability, T/C (second compound 0.0316 µM, first compound 0.1 µM) 64.5% | viability, T/C [2] 59.1% | viability, T/C (second compound 0.0316 µM, first compound 1 µM) 49.6% | viability, T/C (second compound 0.0316 µM, first compound 3.16 µM) 50.2% | viability, T/C (second compound 0.0316 µM, first compound 10 µM) 29.7% | viability, T/C [3] 51.9% | viability, T/C (second compound 0.1 µM, first compound 0.1 µM) 47.3% | viability, T/C [4] 49.1% | viability, T/C (second compound 0.1 µM, first compound 1 µM) 41.5% | viability, T/C (second compound 0.1 µM, first compound 3.16 µM) 44.7% | viability, T/C (second compound 0.1 µM, first compound 10 µM) 27.4% | viability, T/C [5] 47.5% | viability, T/C (second compound 0.316 µM, first compound 0.1 µM) 46% | viability, T/C [6] 43.4% | viability, T/C (second compound 0.316 µM, first compound 1 µM) 41.1% | viability, T/C (second compound 0.316 µM, first compound 3.16 µM) 35.7% | viability, T/C (second compound 0.316 µM, first compound 10 µM) 24.4% | viability, T/C [7] 37.8% | viability, T/C (second compound 1 µM, first compound 0.1 µM) 40.3% | viability, T/C [8] 35.7% | viability, T/C (second compound 1 µM, first compound 1 µM) 37.8% | viability, T/C (second compound 1 µM, first compound 3.16 µM) 39% | viability, T/C (second compound 1 µM, first compound 10 µM) 27% | viability, T/C [9] 33.5% | viability, T/C (second compound 3.16 µM, first compound 0.1 µM) 34% | viability, T/C [10] 32.2% | viability, T/C (second compound 3.16 µM, first compound 1 µM) 30.6% | viability, T/C (second compound 3.16 µM, first compound 3.16 µM) 31.1% | viability, T/C (second compound 3.16 µM, first compound 10 µM) 22.7% | viability, T/C [11] 33.8% | viability, T/C (second compound 10 µM, first compound 0.1 µM) 28.8% | viability, T/C [12] 31.5% | viability, T/C (second compound 10 µM, first compound 1 µM) 29.1% | viability, T/C (second compound 10 µM, first compound 3.16 µM) 33.6% | viability, T/C (second compound 10 µM, first compound 10 µM) 23.9%
< 31.6 nM: IC50 (second compound 0.1 µM) | IC50 (second compound 0.316 µM) | IC50 (second compound 1 µM) | IC50 (second compound 3.16 µM) | IC50 (second compound 10 µM)
1600 nM: IC50 (second compound 0.0316 µM)

Cc1[nH]c2ccccc2c1CCNCc1ccc(/C=C/C(=O)NO)cc1 + CN(C)c1ccc(Nc2c3ccc(NC(=O)CCN4CCCC4)cc3nc3cc(NC(=O)CCN4CCCC4)ccc23)cc1
< 0.999 nM: IC50 (second compound 10 µM)
inactive: viability, T/C (second compound 0.0316 µM, first compound 0.000999 µM) 97.4% | viability, T/C (second compound 0.0316 µM, first compound 0.00316 µM) 94.7% | viability, T/C (second compound 0.0316 µM, first compound 0.00999 µM) 84.9% | viability, T/C [1] 59.6% | viability, T/C (second compound 0.0316 µM, first compound 0.0999 µM) 51.3% | viability, T/C [2] 21.6% | viability, T/C (second compound 0.1 µM, first compound 0.000999 µM) 94.2% | viability, T/C (second compound 0.1 µM, first compound 0.00316 µM) 102% | viability, T/C (second compound 0.1 µM, first compound 0.00999 µM) 80.5% | viability, T/C [3] 57.1% | viability, T/C (second compound 0.1 µM, first compound 0.0999 µM) 43% | viability, T/C [4] 22% | viability, T/C (second compound 0.316 µM, first compound 0.000999 µM) 96.8% | viability, T/C (second compound 0.316 µM, first compound 0.00316 µM) 97.4% | viability, T/C (second compound 0.316 µM, first compound 0.00999 µM) 70.5% | viability, T/C [5] 60.5% | viability, T/C (second compound 0.316 µM, first compound 0.0999 µM) 41.2% | viability, T/C [6] 19.4% | viability, T/C (second compound 1 µM, first compound 0.000999 µM) 88% | viability, T/C (second compound 1 µM, first compound 0.00316 µM) 83.4% | viability, T/C (second compound 1 µM, first compound 0.00999 µM) 67.3% | viability, T/C [7] 58.1% | viability, T/C (second compound 1 µM, first compound 0.0999 µM) 38.4% | viability, T/C [8] 18.3% | viability, T/C (second compound 3.16 µM, first compound 0.000999 µM) 82.4% | viability, T/C (second compound 3.16 µM, first compound 0.00316 µM) 80.2% | viability, T/C (second compound 3.16 µM, first compound 0.00999 µM) 61.2% | viability, T/C [9] 48.6% | viability, T/C (second compound 3.16 µM, first compound 0.0999 µM) 26.3% | viability, T/C [10] 15.4% | viability, T/C (second compound 10 µM, first compound 0.000999 µM) 34.1% | viability, T/C (second compound 10 µM, first compound 0.00316 µM) 29.8% | viability, T/C (second compound 10 µM, first compound 0.00999 µM) 21% | viability, T/C [11] 23.4% | viability, T/C (second compound 10 µM, first compound 0.0999 µM) 13.6%
82.6 nM: IC50 (second compound 0.0316 µM)
55.2 nM: IC50 (second compound 0.316 µM)
24.8 nM: IC50 (second compound 3.16 µM)
48 nM: IC50 (second compound 1 µM)
active: viability, T/C [12] 4.56%
55.1 nM: IC50 (second compound 0.1 µM)
